Test results taken from US20240018154A1, “NEW INDAZOLE DERIVATIVES” (Hoffmann-La Roche Inc., priority 2020, published 2024).
pIC50: −log10 of the molar value.

What follows are molecules tested against T1, EGFR LRCS (BaF3-LRCS cell line) (Homo sapiens, UniProt P00533, C797S/L858R) (assay: HTRF Phospho EGFR LRCS assay (cellular)). Conditions: BaF3-LRCS cells, 4 hours incubation with compound, Phospho-EGFR HTRF readout.
T1 construct: host or cells: BaF3 (BaF3-LRCS engineered line, kept under puromycin)
T1 sequence (P00533 25-1210 C797S/L858R): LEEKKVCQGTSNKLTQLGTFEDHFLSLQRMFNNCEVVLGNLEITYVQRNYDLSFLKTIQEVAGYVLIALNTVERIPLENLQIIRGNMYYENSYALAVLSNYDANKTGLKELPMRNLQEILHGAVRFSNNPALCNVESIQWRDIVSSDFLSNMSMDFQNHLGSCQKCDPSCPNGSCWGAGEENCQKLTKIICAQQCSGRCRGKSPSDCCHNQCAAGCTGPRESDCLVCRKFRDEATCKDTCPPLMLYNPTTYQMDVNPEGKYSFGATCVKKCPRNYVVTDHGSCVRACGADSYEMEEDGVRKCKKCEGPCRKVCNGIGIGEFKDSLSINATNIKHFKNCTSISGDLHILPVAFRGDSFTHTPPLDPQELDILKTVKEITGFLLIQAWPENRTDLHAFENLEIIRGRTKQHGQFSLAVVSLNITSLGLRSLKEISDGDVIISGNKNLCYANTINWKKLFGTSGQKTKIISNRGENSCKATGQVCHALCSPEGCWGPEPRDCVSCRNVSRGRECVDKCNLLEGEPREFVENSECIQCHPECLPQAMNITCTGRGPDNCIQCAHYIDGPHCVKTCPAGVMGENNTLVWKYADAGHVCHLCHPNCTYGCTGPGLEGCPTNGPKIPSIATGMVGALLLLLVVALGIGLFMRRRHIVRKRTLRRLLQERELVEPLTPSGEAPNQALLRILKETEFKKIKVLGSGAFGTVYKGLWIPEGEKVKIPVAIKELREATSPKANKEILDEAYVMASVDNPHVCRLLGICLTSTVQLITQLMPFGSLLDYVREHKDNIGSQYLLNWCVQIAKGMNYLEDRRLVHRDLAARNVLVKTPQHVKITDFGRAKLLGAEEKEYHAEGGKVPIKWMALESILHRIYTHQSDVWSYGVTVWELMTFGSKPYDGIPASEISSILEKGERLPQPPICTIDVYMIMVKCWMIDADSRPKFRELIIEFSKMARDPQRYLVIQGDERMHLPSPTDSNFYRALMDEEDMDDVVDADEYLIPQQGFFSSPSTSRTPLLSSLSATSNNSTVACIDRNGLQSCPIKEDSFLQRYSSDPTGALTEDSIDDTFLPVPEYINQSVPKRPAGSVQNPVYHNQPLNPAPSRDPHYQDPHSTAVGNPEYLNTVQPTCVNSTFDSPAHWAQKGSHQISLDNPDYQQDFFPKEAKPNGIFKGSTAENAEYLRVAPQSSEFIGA
Assay type: cell-based
Method: HTRF Phospho EGFR LRCS Assay (Cellular)
BaF3-LRCS cell line were obtained from Crownbio (San Diego, CA, USA). Cells were maintained at 37° C., 5% CO2 in RPMI ATCC (Gibco 31870)+2 mM Glutamine+0.5 μg/ml Puromycin supplemented with 10% fetal bovine serum (FBS) (Gibco).
Cells are transferred as above to Greiner Bio-One, Nr. 784-08 micro-titerplate at 20000 cells/well in 12.5 μl of growth medium/well after the plates had been pre-filled with 12.5 nl of DMSO solutions of the to be tested compounds (in dose response) or DMSO only. After spinning the plates at 300×g for 30 seconds the cells were incubated for 4 hours at 37 C, 5% CO2, 95% humidity. The cells were lysed by adding to the compound mix 4 μl/well of the supplemented lysis buffer (Cis-bio, Phospho-EGFR HTRF kit, 64EG1PEH), followed by incubation for 30 min at room temperature with shaking (400 rpm). The plates were then frozen and stored overnight at −80° C. On the next day and after thawing the plates, 4 μl of a mixture of anti-Phospho-EGFR Cryptate and of anti-Phospho-EGFR-d2 antibody solutions prepared in the supplied detection buffer was added to each well. The lidded plates were then incubated for 4 h at room temperature before reading the fluorescence emission at 616 and 665 nm using an Envision reader (Perkin Elmer). Data was analyzed in similar fashion as above using the normalized ratio of the 665 to 616 signals multiplied by 10000.

SMILES	pIC50
Cc1c(-c2ccc(OCCN3CCC(O)CC3)cc2)cc(C(F)F)c2cn(C(C(=O)Nc3nccs3)c3ncn4c3C[C@@H](F)C4)nc12 (stereo partly drawn) [Example 10, 2-[4-(Difluoromethyl)-6-[4-[2-(4-hydroxy-1-piperidyl)ethoxy]phenyl]-7-methyl-indazol-2-yl]-2-[(6R)-6-fluoro-6,7-dihydro-5H-pyrrolo[1,2-c]imidazol-1-yl]-N-thiazol-2-yl-acetamide]	7.77
Cc1c(-c2ccc(N3CCOCC3)cc2)cc(C(F)F)c2cn(C(C(=O)Nc3nccs3)c3ncn4c3CCC4)nc12 (centres unmarked) [Example 8, 2-[4-(Difluoromethyl)-7-methyl-6-(4-morpholinophenyl)indazol-2-yl]-2-(6,7-dihydro-5H-pyrrolo[1,2-c]imidazol-1-yl)-N-thiazol-2-yl-acetamide]	7.77
Cc1c(-c2ccc(OCCN3CCC(C(C)O)CC3)cc2)cc(C(F)F)c2cn(C(C(=O)Nc3nccs3)c3ncn4c3C[C@@H](F)C4)nc12 (stereo partly drawn) [Example 22, 2-[4-(Difluoromethyl)-6-[4-[2-[4-(1-hydroxyethyl)-1-piperidyl]ethoxy]phenyl]-7-methyl-indazol-2-yl]-2-[(6R)-6-fluoro-6,7-dihydro-5H-pyrrolo[1,2-c]imidazol-1-yl]-N-thiazol-2-yl-acetamide]	7.52
Cc1c(-c2ccc(OCCN3CCOCC3)cc2)cc(C(F)F)c2cn(C(C(=O)Nc3nccs3)c3ncn4c3C[C@@H](F)C4)nc12 (stereo partly drawn) [Example 18, 2-[4-(Difluoromethyl)-7-methyl-6-[4-(2-morpholinoethoxy)phenyl]indazol-2-yl]-2-[(6R)-6-fluoro-6,7-dihydro-5H-pyrrolo[1,2-c]imidazol-1-yl]-N-thiazol-2-yl-acetamide]	7.55
Cc1c(-c2ccc(OCCN3CCC(CO)CC3)cc2)cc(C(F)F)c2cn(C(C(=O)Nc3nccs3)c3ncn4c3C[C@@H](F)C4)nc12 (stereo partly drawn) [Example 5, 2-[4-(Difluoromethyl)-6-[4-[2-[4-(hydroxymethyl)-1-piperidyl]ethoxy]phenyl]-7-methyl-indazol-2-yl]-2-[(6R)-6-fluoro-6,7-dihydro-5H-pyrrolo[1,2-c]imidazol-1-yl]-N-thiazol-2-yl-acetamide]	7.72
Cc1c(-c2ccc(N3C[C@H]4CN(CC(C)F)C[C@H]4C3)cc2)cc(C(F)F)c2cn(C(C(=O)Nc3nccs3)c3ncn4c3C[C@@H](F)C4)nc12 (stereo partly drawn) [Example 29, 2-[6-[4-[(3aR,6aS)-2-(2-Fluoropropyl)-1,3,3a,4,6,6a-hexahydropyrrolo[3,4-c]pyrrol-5-yl]phenyl]-4-(difluoromethyl)-7-methyl-indazol-2-yl]-2-[(6R)-6-fluoro-6,7-dihydro-5H-pyrrolo[1,2-c]imidazol-1-yl]-N-thiazol-2-yl-acetamide]	7.55
Cc1c(-c2ccc(C3CC(CN4CCC(O)CC4)C3)cc2)cc(C(F)F)c2cn(C(C(=O)Nc3nccs3)c3ncn4c3C[C@@H](F)C4)nc12 (stereo partly drawn) [Example 17, 2-[4-(Difluoromethyl)-6-[4-[3-[(4-hydroxy-1-piperidyl)methyl]cyclobutyl]phenyl]-7-methyl-indazol-2-yl]-2-[(6R)-6-fluoro-6,7-dihydro-5H-pyrrolo[1,2-c]imidazol-1-yl]-N-thiazol-2-yl-acetamide]	7.52
Cc1c(-c2ccc(CCN(C)C)cc2)cc(C(F)F)c2cn(C(C(=O)Nc3nccs3)c3ncn4c3C[C@@H](F)C4)nc12 (stereo partly drawn) [Example 4, 2-[4-(Difluoromethyl)-6-[4-[2-(dimethylamino)ethyl]phenyl]-7-methyl-indazol-2-yl]-2-[(6R)-6-fluoro-6,7-dihydro-5H-pyrrolo[1,2-c]imidazol-1-yl]-N-thiazol-2-yl-acetamide]	7.96
CCN1CC[C@@H](c2ccc(-c3cc(C(F)F)c4cn(C(C(=O)Nc5nccs5)c5ncn6c5C[C@@H](F)C6)nc4c3C)cc2)[C@H](F)C1 (single isomer, unassigned) [Example 2, 2-[4-(Difluoromethyl)-6-[4-[(3S,4S)-1-ethyl-3-fluoro-4-piperidyl]phenyl]-7-methyl-indazol-2-yl]-2-[(6R)-6-fluoro-6,7-dihydro-5H-pyrrolo[1,2-c]imidazol-1-yl]-N-thiazol-2-yl-acetamide or 2-[4-(Difluoromethyl)-6-[4-[(3R,4R)-1-ethyl-3-fluoro-4-piperidyl]phenyl]-7-methyl-indazol-2-yl]-2-[(6R)-6-fluoro-6,7-dihydro-5H-pyrrolo[1,2-c]imidazol-1-yl]-N-thiazol-2-yl-acetamide]	7.82
Cc1c(-c2ccc(CN(C)C3CCC(O)CC3)cc2)cc(C(F)F)c2cn(C(C(=O)Nc3nccs3)c3ncn4c3C[C@@H](F)C4)nc12 (stereo partly drawn) [Example 28, 2-[4-(Difluoromethyl)-6-[4-[[(4-hydroxycyclohexyl)-methyl-amino]methyl]phenyl]-7-methyl-indazol-2-yl]-2-[(6R)-6-fluoro-6,7-dihydro-5H-pyrrolo[1,2-c]imidazol-1-yl]-N-thiazol-2-yl-acetamide]	7.47

Next, values leading:

pIC50	SMILES
7.85	Cc1c(-c2ccc(CN3CCC(O)CC3)cc2)cc(C(F)F)c2cn(C(C(=O)Nc3nccs3)c3ncn4c3C[C@@H](F)C4)nc12 (stereo partly drawn) [Example 7, 2-[4-(Difluoromethyl)-6-[4-[(4-hydroxy-1-piperidyl)methyl]phenyl]-7-methyl-indazol-2-yl]-2-[(6R)-6-fluoro-6,7-dihydro-5H-pyrrolo[1,2-c]imidazol-1-yl]-N-thiazol-2-yl-acetamide]
7.92	Cc1c(-c2ccc(N3CCOCC3)nc2)cc(C(F)F)c2cn(C(C(=O)Nc3nccs3)c3ncn4c3C[C@@H](F)C4)nc12 (stereo partly drawn) [Example 21, 2-[4-(Difluoromethyl)-7-methyl-6-(6-morpholino-3-pyridyl)indazol-2-yl]-2-[(6R)-6-fluoro-6,7-dihydro-5H-pyrrolo[1,2-c]imidazol-1-yl]-N-thiazol-2-yl-acetamide]
7.92	Cc1c(-c2ccc(N3CCN(CCO)CC3)cc2)cc(C(F)F)c2cn(C(C(=O)Nc3nccs3)c3ncn4c3C[C@@H](F)C4)nc12 (stereo partly drawn) [Example 20, 2-[4-(Difluoromethyl)-6-[4-[4-(2-hydroxyethyl)piperazin-1-yl]phenyl]-7-methyl-indazol-2-yl]-2-[(6R)-6-fluoro-6,7-dihydro-5H-pyrrolo[1,2-c]imidazol-1-yl]-N-thiazol-2-yl-acetamide]
7.80	Cc1c(-c2ccc(CN3CCC(CO)CC3)cc2)cc(C(F)F)c2cn(C(C(=O)Nc3nccs3)c3ncn4c3C[C@@H](F)C4)nc12 (stereo partly drawn) [Example 6, 2-[4-(Difluoromethyl)-6-[4-[[4-(hydroxymethyl)-1-piperidyl]methyl]phenyl]-7-methyl-indazol-2-yl]-2-[(6R)-6-fluoro-6,7-dihydro-5H-pyrrolo[1,2-c]imidazol-1-yl]-N-thiazol-2-yl-acetamide]
8.10	Cc1c(-c2ccc(N3CCOCC3)cc2)cc(C(F)F)c2cn(C(C(=O)Nc3nccs3)c3ncn4c3C[C@@H](F)C4)nc12 (stereo partly drawn) [Example 1, 2-[4-(Difluoromethyl)-7-methyl-6-(4-morpholinophenyl)indazol-2-yl]-2-[(6R)-6-fluoro-6,7-dihydro-5H-pyrrolo[1,2-c]imidazol-1-yl]-N-thiazol-2-yl-acetamide]
7.55	Cc1c(-c2ccc(CCN3CCC(O)CC3)cc2)cc(C(F)F)c2cn(C(C(=O)Nc3nccs3)c3ncn4c3C[C@@H](F)C4)nc12 (stereo partly drawn) [Example 27, 2-[4-(Difluoromethyl)-6-[4-[2-(4-hydroxy-1-piperidyl)ethyl]phenyl]-7-methyl-indazol-2-yl]-2-[(6R)-6-fluoro-6,7-dihydro-5H-pyrrolo[1,2-c]imidazol-1-yl]-N-thiazol-2-yl-acetamide]
7.60	Cc1c(-c2ccc(N3CCC(C)(O)CC3)cc2)cc(C(F)F)c2cn(C(C(=O)Nc3nccs3)c3ncn4c3C[C@@H](F)C4)nc12 (stereo partly drawn) [Example 24, 2-[4-(Difluoromethyl)-6-[4-(4-hydroxy-4-methyl-1-piperidyl)phenyl]-7-methyl-indazol-2-yl]-2-[(6R)-6-fluoro-6,7-dihydro-5H-pyrrolo[1,2-c]imidazol-1-yl]-N-thiazol-2-yl-acetamide]
8.00	Cc1c(-c2ccc(N3CCC(O)CC3)cc2)cc(C(F)F)c2cn(C(C(=O)Nc3nccs3)c3ncn4c3C[C@@H](F)C4)nc12 (stereo partly drawn) [Example 11, 2-[4-(Difluoromethyl)-6-[4-(4-hydroxy-1-piperidyl)phenyl]-7-methyl-indazol-2-yl]-2-[(6R)-6-fluoro-6,7-dihydro-5H-pyrrolo[1,2-c]imidazol-1-yl]-N-thiazol-2-yl-acetamide]
7.74	Cc1c(-c2ccc(CN3CCC(C(C)O)CC3)cc2)cc(C(F)F)c2cn(C(C(=O)Nc3nccs3)c3ncn4c3C[C@@H](F)C4)nc12 (stereo partly drawn) [Example 12, 2-[4-(Difluoromethyl)-6-[4-[[4-(1-hydroxyethyl)-1-piperidyl]methyl]phenyl]-7-methyl-indazol-2-yl]-2-[(6R)-6-fluoro-6,7-dihydro-5H-pyrrolo[1,2-c]imidazol-1-yl]-N-thiazol-2-yl-acetamide]
7.77	Cc1c(-c2ccc(N3CCN4CCC3C4)cc2)cc(C(F)F)c2cn(C(C(=O)Nc3nccs3)c3ncn4c3C[C@@H](F)C4)nc12 (stereo partly drawn) [Example 13, 2-[6-[4-(1,4-Diazabicyclo[3.2.1]octan-4-yl)phenyl]-4-(difluoromethyl)-7-methyl-indazol-2-yl]-2-[(6R)-6-fluoro-6,7-dihydro-5H-pyrrolo[1,2-c]imidazol-1-yl]-N-thiazol-2-yl-acetamide]
